Each molecule was assayed against T1, human M4 muscarinic acetylcholine receptor (Homo sapiens, UniProt P08173) (assay: human FLIPR-based M4 PAM assay (CHO-K1 cells with human M4 receptor and Gαqi5, calcium dye fluorescence, EC20 acetylcholine)). Conditions: inflection point (IP) of the dose response curve, human M4 receptor/Gαqi5, acetylcholine at 20% of maximum response, read-out: M4PAM Hu IP.
T1 construct: expressed in transfected cells
T1 sequence (P08173 1-479): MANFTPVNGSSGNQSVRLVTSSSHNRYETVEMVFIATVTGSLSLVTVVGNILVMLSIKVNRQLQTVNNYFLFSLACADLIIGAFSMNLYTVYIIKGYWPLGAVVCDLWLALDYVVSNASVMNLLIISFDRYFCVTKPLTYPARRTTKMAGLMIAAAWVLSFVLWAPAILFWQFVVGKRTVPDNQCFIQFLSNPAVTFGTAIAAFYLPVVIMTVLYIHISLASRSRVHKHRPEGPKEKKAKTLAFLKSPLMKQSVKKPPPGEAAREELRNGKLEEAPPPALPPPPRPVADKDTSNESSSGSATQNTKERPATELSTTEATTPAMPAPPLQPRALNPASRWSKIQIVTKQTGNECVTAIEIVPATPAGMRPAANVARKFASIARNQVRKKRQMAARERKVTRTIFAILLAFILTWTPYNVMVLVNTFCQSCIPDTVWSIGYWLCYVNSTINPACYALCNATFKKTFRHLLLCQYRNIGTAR
Type: cell-based
Description: (§1) In a typical experiment the M4 muscarinic acetylcholine receptor modulating activity of the compounds of the present invention was determined in accordance with the following experimental method. CHO-K1 cells stably transfected with human M4 receptor and chimeric G-protein Gαqi5 (Coward P, et al., Analytical Biochemistry, 270:242-248 (1999)) are thawed from liquid N2 storage, resuspended in growth medium, plated in black, clear bottom 384 well plates, and incubated 16-20 hours at 37° C., 5% CO2. On the day of assay, growth medium is removed, the cells are washed 2 times with wash buffer, and cells are incubated in dye loading buffer at 37° C., 5% CO2 for ˜1 hour. Following dye loading the cell plates are placed in a FLIPR Tetra instrument and while monitoring dye fluorescence (excitation […]), 10 uL of test substance at increasing concentrations is added, and fluorescence values are recorded for 4 min. Next, 10 uL of acetylcholine is added (final concentration calculated so as to achieve 20% of the maximum acetycholine response), and the fluorescence reading is continued for 3.5 min. In some cases, a third addition of acetylcholine (final concentration calculated to achieve 70% of the maximal acetylcholine response) is performed. The resulting dose response curves are fit to a 4 parameter logistic equation and the final result is determined as the inflection point (IP) of the curve
as §1, with “CHO-K1” for “In a typical experiment the M4 muscarinic acetylcholine receptor modulating activity of the compounds of the present invention was determined in accordance with the following experimental method. CHO-K1”, “Gαqi5” for “Gαqi5 (Coward P, et al., Analytical Biochemistry, 270:242-248 (1999))”, “performed.” for “performed. The resulting dose response curves are fit to a 4 parameter logistic equation and the final result is determined as the inflection point (IP) of the curve”

`COc1cc2ccc(-c3nc(C#N)ccc3-c3cnn(CC4(C(F)(F)F)CC4)c3)cc2nn1` [Example 45, 6-(3-methoxycinnolin-7-yl)-5-(1-{[1-(trifluoromethyl)cyclopropyl]methyl}-1H-pyrazol-4-yl)pyridine-2-carbonitrile] and `COc1cc2ccc(-c3nc(C#N)ccc3-c3cnn(CC(C)(C)C)c3)cc2nn1` [Example 38, 5-[1-(2,2-dimethylpropyl)-1H-pyrazol-4-yl]-6-(3-methoxycinnolin-7-yl)pyridine-2-carbonitrile] are within 1.5-fold of each other in EC50: 0.06 µM for the first, 0.041 µM for the second.

`Cc1ccc(-c2cnn(CC34CC(C3)C4)c2)c(-c2ccc3cccnc3c2)n1` [Example 9, 7-{3-[1-(bicyclo[1.1.1]pent-1-ylmethyl)-1H-pyrazol-4-yl]-6-methylpyridin-2-yl}quinoline] and `Cc1ccc(-c2cnn(CC34CCC(CC3)CC4)c2)c(-c2ccc3cccnc3c2)n1` [Example 14, 7-{3-[1-(bicyclo[2.2.2]oct-1-ylmethyl)-1H-pyrazol-4-yl]-6-methylpyridin-2-yl}quinoline] are within 1.5-fold of each other in EC50: 0.021 µM for the first, 0.02 µM for the second.

Compared with `COc1cc2ccc(-c3nc(C)ccc3-c3cnn(CC4(C)CCC(F)(F)CC4)c3)cc2nn1` [Example 22, 7-(3-{1-[(4,4-difluoro-1-methylcyclohexyl)methyl]-1H-pyrazol-4-yl}-6-methylpyridin-2-yl)-3-methoxycinnoline], `COc1cc2ccc(-c3nc(C)ccc3-c3cnn(CC4(C)CCC4)c3)cc2nn1` [Example 25, 3-methoxy-7-(6-methyl-3-{1-[(1-methylcyclobutyl)methyl]-1H-pyrazol-4-yl}pyridin-2-yl)cinnoline] is 2.9-fold higher in EC50: 0.016 µM for the first, 0.046 µM for the second.

`COc1cc2ccc(-c3nc(C)ccc3-c3cnn(CC4CCC(F)(F)CC4)c3)cc2nn1` [Example 17, 7-(3-{1-[(4,4-difluorocyclohexyl)methyl]-1H-pyrazol-4-yl}-6-methylpyridin-2-yl)-3-methoxycinnoline] and `COc1cc2ccc(-c3nc(C)ccc3-c3cnn(CC4CCC4)c3)cc2nn1` [Example 8, 7-{3-[1-(cyclobutylmethyl)-1H-pyrazol-4-yl]-6-methylpyridin-2-yl}-3-methoxycinnoline] are within 1.5-fold of each other in EC50: 0.056 µM for the first, 0.072 µM for the second.

Compared with `CC(C)(C)Cn1cc(-c2ccc(C#N)nc2-c2ccc3ccnnc3c2)cn1` [Example 43, 6-cinnolin-7-yl-5-[1-(2,2-dimethylpropyl)-1H-pyrazol-4-yl]pyridine-2-carbonitrile], `CC(C)(C)CCn1cc(-c2ccc(C#N)nc2-c2ccc3cccnc3c2)cn1` [Example 89, 5-[1-(3,3-dimethylbutyl)-1H-pyrazol-4-yl]-6-quinolin-7-ylpyridine-2-carbonitrile] is 2.2-fold lower in EC50: 0.112 µM for the first, 0.052 µM for the second.

Compared with `N#Cc1ccc(-c2cnn(CC(F)(F)C(F)F)c2)c(-c2ccc3cccnc3c2)n1` [Example 92, 6-quinolin-7-yl-5-[1-(2,2,3,3-tetrahydropropyl)-1H-pyrazol-4-yl]pyridine-2-carbonitrile], `CC(C)(Cn1cc(-c2ccc(C#N)nc2-c2ccc3cccnc3c2)cn1)C(F)F` [Example 90, 5-[1-(3,3-difluoro-2,2-dimethylpropyl)-1H-pyrazol-4-yl]-6-quinolin-7-ylpyridine-2-carbonitrile] is 4.9-fold lower in EC50: 0.131 µM for the first, 0.027 µM for the second.

Going from `Cc1ccc(-c2cnn(CC3(C)CCC(F)(F)CC3)c2)c(-c2ccc3cccnc3c2)n1` [Example 93, 7-(3-{1-[(4,4-difluoro-1-methylcyclohexyl)methyl]-1H-pyrazol-4-yl}-6-methylpyridin-2-yl)quinoline] to `Cc1ccc(-c2cnn(CC3CCC(F)(F)CC3)c2)c(-c2ccc3cccnc3c2)n1` [Example 16, 7-(3-{1-[(4,4-difluorocyclohexyl)methyl]-1H-pyrazol-4-yl}-6-methylpyridin-2-yl)quinoline], the EC50 rises from 0.024 µM to 0.124 µM (5.2-fold).

Going from `COc1cc2ccc(-c3nc(C)ccc3-c3cnn(CC(C)(C)C#N)c3)cc2nn1` [Example 84, 3-{4-[2-(3-methoxycinnolin-7-yl)-6-methylpyridin-3-yl]-1H-pyrazol-1-yl}-2,2-dimethylpropanenitrile] to `COc1cc2ccc(-c3nc(C(F)F)ccc3-c3cnn(CC(C)(C)C)c3)cc2nn1` [Example 54, 7-{6-(difluoromethyl)-3-[1-(2,2-dimethylpropyl)-1H-pyrazol-4-yl]pyridin-2-yl}-3-methoxycinnoline], the EC50 falls from 0.198 µM to 0.053 µM (3.7-fold). The second is the more potent here.

`COc1cc2ccc(-c3nc(C#N)c(C)cc3-c3cnn(CCC(C)(C)OC)c3)cc2nn1` [Example 32, 6-(3-methoxycinnolin-7-yl)-5-[1-(3-methoxy-3-methylbutyl)-1H-pyrazol-4-yl]-3-methylpyridine-2-carbonitrile] and `COc1cc2ccc(-c3nc(Cl)c(C)cc3-c3cnn(CCC(C)(C)OC)c3)cc2nn1` [Example 30, 7-{6-chloro-3-[1-(3-methoxy-3-methylbutyl)-1H-pyrazol-4-yl]-5-methylpyridin-2-yl}-3-methoxycinnoline] are within 1.5-fold of each other in EC50: 0.113 µM for the first, 0.143 µM for the second.

First: COc1cc2ccc(-c3nc(C)ccc3-c3cnn(CC4CC5(CCC5)C4)c3)cc2nn1 [Example 83, 3-methoxy-7-{6-methyl-3-[1-(spiro[3.3]hept-2-ylmethyl)-1H-pyrazol-4-yl]pyridin-2-yl}cinnoline]
Second: COc1cc2ccc(-c3nc(C)ccc3-c3cnn(CC4CCCCC4)c3)cc2nn1 [Example 107, 7-{3-[1-(cyclohexylmethyl)-1H-pyrazol-4-yl]-6-methylpyridin-2-yl}-3-methoxycinnoline]
The EC50 of the first is 6.2-fold higher: 0.099 µM for the first, 0.016 µM for the second.

Going from `CC1(Cn2cc(-c3cccnc3-c3ccc4cccnc4c3)cn2)CCCCC1` [Example 94, 7-(3-{1-[(1-methylcyclohexyl)methyl]-1H-pyrazol-4-yl}pyridin-2-yl)quinoline] to `c1cnc(-c2ccc3cccnc3c2)c(-c2cnn(CCC3CCC3)c2)c1` [Example 95, 7-{3-[1-(2-cyclobutylethyl)-1H-pyrazol-4-yl]pyridin-2-yl}quinoline], the EC50 rises from 0.052 µM to 0.158 µM (3-fold).

Going from `COc1cc2ccc(-c3nc(C)ccc3-c3cnn(CC4(C)CCOCC4)c3)cc2nn1` [Example 87, 3-methoxy-7-(6-methyl-3-{1-[(4-methyltetrahydro-2H-pyran-4-yl)methyl]-1H-pyrazol-4-yl}pyridin-2-yl)cinnoline] to `Cc1ccc(-c2cnn(CC3(C)CCCCC3)c2)c(-c2ccc3cc(C(F)(F)F)cnc3c2)n1` [Example 7, 7-(6-methyl-3-{1-[(1-methylcyclohexyl)methyl]-1H-pyrazol-4-yl}pyridin-2-yl)-3-(trifluoromethyl)quinoline], the EC50 rises from 0.063 µM to 0.137 µM (2.2-fold).

First: CC(C)(C)Cn1cc(-c2ccc(C(F)F)nc2-c2ccc3cccnc3c2)cn1 [Example 109, 7-{6-(difluoromethyl)-3-[1-(2,2-dimethylpropyl)-1H-pyrazol-4-yl]pyridin-2-yl}quinoline]
Second: CC(C)(O)C(F)(F)Cn1cc(-c2ccc(C#N)nc2-c2ccc3cccnc3c2)cn1 [Example 117, 5-[1-(2,2-difluoro-3-hydroxy-3-methylbutyl)-1H-pyrazol-4-yl]-6-quinolin-7-ylpyridine-2-carbonitrile]
The EC50 of the first is 2.2-fold lower: 0.048 µM for the first, 0.104 µM for the second. The first is the more potent here.

`CCc1ccc(-c2cnn(CCC(C)C)c2)c(-c2ccc3cccnc3c2)n1` [Example 73, 7-{6-ethyl-3-[1-(3-methylbutyl)-1H-pyrazol-4-yl]pyridin-2-yl}quinoline] and `CC(C)(CCn1cc(-c2ccc(C#N)nc2-c2ccc3cccnc3c2)cn1)C(F)(F)F` [Example 91, 6-quinolin-7-yl-5-[1-(4,4,4-trifluoro-3,3-dimethylbutyl)-1H-pyrazol-4-yl]pyridine-2-carbonitrile] are within 1.5-fold of each other in EC50: 0.14 µM for the first, 0.19 µM for the second.

`COc1cc2ccc(-c3nc(C)ccc3-c3cnn(Cc4ccccc4F)c3)cc2nn1` [Example 21, 7-{3-[1-(2-fluorobenzyl)-1H-pyrazol-4-yl]-6-methylpyridin-2-yl}-3-methoxycinnoline] and `N#Cc1ccc(-c2cnn(CC3(C(F)(F)F)CC3)c2F)c(-c2ccc3cccnc3c2)n1` [Example 59, 5-(5-fluoro-1-{[1-(trifluoromethyl)cyclopropyl]methyl}-1H-pyrazol-4-yl)-6-quinolin-7-ylpyridine-2-carbonitrile] are within 1.5-fold of each other in EC50: 0.062 µM for the first, 0.057 µM for the second.

Reference: US11970479B2, “3-(1H-pyrazol-4-yl)pyridine allosteric modulators of the M4 muscarinic acetylcholine receptor” (Merck Sharp & Dohme LLC, priority 2018, dated 2024)
